Numbering of substitutions follows the chain as printed.
Columns and labels:
[1] = biological target: T1, Peroxisome proliferator-activated receptor alpha (Rattus norvegicus, UniProt P37230); test: Agonist activity at rat PPARalpha; assay type: functional
T1 sequence (P37230 whole entry): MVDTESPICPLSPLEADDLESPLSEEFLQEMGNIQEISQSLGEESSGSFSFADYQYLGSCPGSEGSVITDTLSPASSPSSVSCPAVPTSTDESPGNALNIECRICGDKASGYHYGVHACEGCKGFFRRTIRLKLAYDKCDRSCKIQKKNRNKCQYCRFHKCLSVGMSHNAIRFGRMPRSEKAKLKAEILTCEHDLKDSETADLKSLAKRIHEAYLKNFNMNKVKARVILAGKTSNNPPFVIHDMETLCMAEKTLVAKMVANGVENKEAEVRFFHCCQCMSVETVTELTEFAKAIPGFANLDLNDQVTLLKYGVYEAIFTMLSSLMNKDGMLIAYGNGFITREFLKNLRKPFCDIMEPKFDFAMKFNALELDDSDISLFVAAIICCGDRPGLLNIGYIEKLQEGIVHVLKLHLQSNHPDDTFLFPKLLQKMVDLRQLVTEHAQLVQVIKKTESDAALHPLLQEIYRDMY

[2] = Agonist activity at hamster PPARalpha; assay type: functional, Cricetinae
[3] = biological target: T2, Peroxisome proliferator-activated receptor alpha (Canis lupus familiaris, UniProt Q95N78); test: Agonist activity at dog PPARalpha; assay type: functional
T2 sequence (Q95N78 whole entry): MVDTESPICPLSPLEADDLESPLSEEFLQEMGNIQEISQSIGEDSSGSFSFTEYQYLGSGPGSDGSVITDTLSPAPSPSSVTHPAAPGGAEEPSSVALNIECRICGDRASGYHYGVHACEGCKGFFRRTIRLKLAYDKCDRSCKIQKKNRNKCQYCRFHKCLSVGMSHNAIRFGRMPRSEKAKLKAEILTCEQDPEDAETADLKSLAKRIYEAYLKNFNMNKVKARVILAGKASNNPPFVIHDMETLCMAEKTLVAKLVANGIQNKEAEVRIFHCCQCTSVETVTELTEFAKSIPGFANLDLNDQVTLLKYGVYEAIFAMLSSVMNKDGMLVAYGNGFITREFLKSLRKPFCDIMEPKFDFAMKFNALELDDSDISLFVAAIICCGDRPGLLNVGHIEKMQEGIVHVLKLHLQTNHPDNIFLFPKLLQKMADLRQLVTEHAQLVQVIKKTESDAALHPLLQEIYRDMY

[4] = biological target: T3, Peroxisome proliferator-activated receptor gamma (Mus musculus, UniProt P37238); test: Agonist activity at mouse PPARgamma; assay type: functional
T3 sequence (P37238 whole entry): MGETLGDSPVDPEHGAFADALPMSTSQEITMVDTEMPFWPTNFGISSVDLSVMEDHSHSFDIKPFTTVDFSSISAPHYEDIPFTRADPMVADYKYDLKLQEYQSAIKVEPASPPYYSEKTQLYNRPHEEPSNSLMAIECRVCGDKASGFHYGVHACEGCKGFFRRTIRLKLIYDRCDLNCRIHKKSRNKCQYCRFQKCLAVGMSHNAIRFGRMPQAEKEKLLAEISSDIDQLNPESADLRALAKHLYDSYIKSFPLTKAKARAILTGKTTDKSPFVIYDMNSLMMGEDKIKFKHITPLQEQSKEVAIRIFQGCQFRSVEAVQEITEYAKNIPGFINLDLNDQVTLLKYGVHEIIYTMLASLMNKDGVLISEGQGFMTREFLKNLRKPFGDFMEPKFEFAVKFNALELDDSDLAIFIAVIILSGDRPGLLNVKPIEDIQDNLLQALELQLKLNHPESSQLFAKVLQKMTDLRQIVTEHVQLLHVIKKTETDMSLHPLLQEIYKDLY

[5] = biological target: T4, Peroxisome proliferator-activated receptor gamma (Rattus norvegicus, UniProt O88275); test: Agonist activity at rat PPARgamma; assay type: functional
T4 sequence (O88275 whole entry): T3 sequence (P37238 whole entry) with S8P, E54D, N383S

[6] = biological target: T5, Peroxisome proliferator-activated receptor gamma (Homo sapiens, UniProt P37231); test: Transactivation of human PPARgamma expressed in CHO-K1 cells; assay type: cell-based
T5 sequence (P37231 whole entry): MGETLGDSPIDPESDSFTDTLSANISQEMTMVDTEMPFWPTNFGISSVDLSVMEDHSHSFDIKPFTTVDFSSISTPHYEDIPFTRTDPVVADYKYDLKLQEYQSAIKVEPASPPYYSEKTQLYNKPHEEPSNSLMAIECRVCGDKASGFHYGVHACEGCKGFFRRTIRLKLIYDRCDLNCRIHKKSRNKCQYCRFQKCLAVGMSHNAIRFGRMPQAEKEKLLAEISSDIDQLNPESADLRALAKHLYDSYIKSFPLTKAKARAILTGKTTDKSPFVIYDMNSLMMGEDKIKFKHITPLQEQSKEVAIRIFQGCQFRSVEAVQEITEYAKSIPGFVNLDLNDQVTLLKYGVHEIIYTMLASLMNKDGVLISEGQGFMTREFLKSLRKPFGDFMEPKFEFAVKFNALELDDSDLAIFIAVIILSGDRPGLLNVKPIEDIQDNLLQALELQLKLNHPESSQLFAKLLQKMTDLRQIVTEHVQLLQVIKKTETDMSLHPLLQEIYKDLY

[7] = system: Canis familiaris; test: Antidyslipidemic activity in high-fat diet fed dog assessed as decrease in non-HDL cholesterol at 0.03 mg/kg, po administered QD for 1 week (reference value: 75 +/- 5 mg/dL); assay type: functional, Canis lupus familiaris

- EC50 [1]: 3.6 µM
- EC50 [2]: 0.61 µM
- EC50 [3]: 0.19 µM
- EC50 [4]: 12 µM
- EC50 [5]: 13 µM
- EC50 [6]: 9.6 µM
SMILES: Cc1nc(-c2ccc(Cl)cc2)sc1C(=O)N[C@H]1CCCN(c2cccc(C(=O)O)c2)C1
- Activity [7]: 42 mg/dL

From ChEMBL document CHEMBL1933028, “Discovery of cyclic amine-substituted benzoic acids as PPARα agonists” (Bioorg Med Chem Lett, 2012)
